One series relates to human RCC A498 cell line. As to the kind of experiment: Proliferation / viability of human RCC A498 cell line. Format: cell-based. The conditions noted are these: for reduction in viability / suppression: 70 nM, 48 hours, human RCC A498; for SAR analysis: relative activity: RCC cell lines, substitution on C-4 phenyl ring. From the text: (§1) A 50 microliter volume of cells was taken from the culture medium and combined with an equal volume of 0.4% Trypan blue stain. Then, 10 microliters of this 1:1 mixture was pipetted onto a slide and placed into a hemocytometer for cell counting. The viable cell count was used for measuring cell proliferation in the sample.
To further expand the structure activity relationship (SAR), six additional AZP derivatives were synthesized: AR-02, AR-03, AR-038, AR-051, AR-061 and AR-065, with different substituents on the C-4 phenyl ring (FIG. 1). Having validated that exemplary AZP compounds show efficacy in our murine-derived RCC line, it was sought to determine if this finding could be relevant in human RCC line, A498. Exemplary compound NSC750212 and newly synthesized analogues were tested in A498 cell line (FIG. 3).

For a further series, the system named is murine RCC E28 cells. As to the kind of experiment: Proliferation of murine RCC E28 cells (viable cell count). Format: cell-based. As to conditions: for sensitivity of MYC-driven RCC line to compound: 140 nM and 70 nM.
Text: In addition, murine renal cell carcinoma E28 cell line was used in this study. These cells were maintained in DMEM supplemented with 10% (vol/vol) FBS, 1% glutamine, 1% sodium pyruvate, 1% non-essential amino acids, and Antibiotic-Antimycotic.
as §1
Activity of compounds NSC750212, NSC750719, NSC750722, and NSC756089 (see, FIG. 1) was investigated on a MYC-driven RCC line derived from a transgenic mouse model using low dose ranges of 280 nM, 140 nM, and 70 nM. […] FIG. 2, illustrates the results of treatment of murine RCC E28 cells with, from left to right: DMSO and corresponding AZP derivatives at concentrations of 70 nM, 140 nM and 280 nM. Even at 70 nM, NSC750212 causes about 90% reduction of cell proliferation compared to the vehicle control (DMSO).

The test system of the next series is CCRF (T lymphoblast). As to the kind of experiment: Proliferation of lymphoma line CCRF. Format: cell-based, human.
Text: (§2) Human T-cell acute lymphoblastic leukemias CCRF, DND-41, KOPT-K1, human B-cell Burkitt's lymphoma P493-6, and murine lymphoma 6780 were used in this study. Human and mouse lymphomas were all maintained in RPMI supplemented with 10% (vol/vol) FBS, 1% glutamine, 1% sodium pyruvate, 1% non-essential amino acids, and Antibiotic-Antimycotic. All cell culture reagents used were obtained from Gibco (Thermo Fisher Scientific Inc.).
as §1
(§3) Activity of exemplary compounds against lymphomas was also investigated. […] FIG. 4 illustrates proliferative responses of various human lymphoma lines, from left to right: CCRF, DND-41, KOPR, and MYC-driven lymphoma lines P493 and 6780, at doses of 70 nM, 140 nM, and 280 nM vs a control (DMSO). […] KOPT and P-493 still show a significant but much less suppression, at roughly 85%. At 140 nM, CCRF and 6780 show an increase in suppression at roughly 92% and 94%, respectively.

For series [1], the system named is DND-41 (child T lymphoblastic leukemia). The series can be described thus: Proliferation of lymphoma line DND-41. Format: cell-based, human.
Text: as §2, §1, §3

Another series deals with KOPT-K1 (human T-ALL). The series can be described thus: Proliferation of lymphoma line KOPT-K1. The series is classed as cell-based.
Text: as §2, §1, §3

Series [2] has as its system human B-cell Burkitt's lymphoma P493-6. The series can be described thus: Proliferation of MYC-driven lymphoma line P493-6. Format: cell-based. The conditions noted are these: P-493.
Text: as §2, §1, §3

The next series deals with murine lymphoma 6780. The series can be described thus: Proliferation of MYC-driven lymphoma line 6780. The series is classed as cell-based.
Text: as §2, §1, §3

In series [3] the test system is human RCC A498 xenografts. The series can be described thus: Human RCC A498 xenograft in NSG mice. As to conditions: intratumoral treatment for a week, vs DMSO control. The series is classed as in vivo. A general note: A xenograft is tissue or cells of one species grown in another, often human tumour cells in immunodeficient mice.
The subject of series [4] is human MYC-driven Burkitt Lymphoma line P493 xenografts. As to the kind of experiment: Human lymphoma P493 xenograft in NSG mice. Format: in vivo. The conditions noted are these: intratumoral treatment for a week, vs DMSO control.
A further series relates to bovine tubulin. The series can be described thus: Tubulin Polymerization Assay (EMD Millipore). Format: biochemical. The conditions noted are these: compared to positive control Nocodazole and negative control Paclitaxel. Here is the method:
The Tubulin Polymerization Assay (EMD Millipore) was used to confer the mechanism of azapodophyllotoxin derivatives. The polymerization reaction was conducted in a 96-well plate. Paclitaxel was used as the non-tubulin-inhibiting negative control, and Nocodazole was used as the tubulin-inhibiting positive control. First, a solution of 99% pure bovine tubulin stock solution in 1× polymerization buffer (PB) containing 1 mM GTP was made. Second, a 1:9 mixture of each drug and control with PB-GTP solution was also prepared. In each well, 60 microliters of the first solution (99% tubulin solution in 1×PB and 1 mM GTP) was combined with 60 microliters of one of each of the prepared 1:9 drug to PB-GTP solutions. All solutions were prepared on ice prior to combining and placement into the spectrophotometer. Tubulin assembly was measured through turbidity variation (light scattering) in the spectrophotometer every 30 seconds at 350 nm (with shaking in between each reading) over the course of 90 minutes.
Given the structure of NSC750212 and computational docking studies of Azapodophyllotoxins in general, it has been stipulated that they may target tubulins. Using EMD Millipore Tubulin Polymerization Assay, NSC750212 was compared to a negative control, Paclitaxel, and a positive control, Nocodazole, to determine whether its mechanism is via the inhibition of tubulin polymerization.

A further series concerns tubulin. As to the kind of experiment: Nano-fluidic proteomic immunoassay (NIA) of tubulin in treated tumors. Format: in vivo, human. How it is done: NIA was performed using the ProteinSimple Nanopro 1000 machine. The final protein concentration loaded into each nano-fluidic capillary of the machine was 0.1 ug/uL. The primary antibody for Tubulin (Cell Signaling Technologies) was diluted 1:100. The primary antibody for HSP70 (Santa Cruz Biosciences) was diluted 1:500. The secondary anti-rabbit and anti-mouse HRP-conjugates were both diluted 1:100. Chemiluminescence signal was recorded after the addition of the detection reagent, which consists of a 1:1 ratio of luminol and peroxide. Analysis of the chemiluminescence data from NIA was performed via the ProteinSimple Compass software.
Fine needle aspirations (FNAs) are defined to be biopsies performed via the aspiration of the tumor using a needle of […] or smaller. Core biopsies are any biopsies done using a needle larger than […]. Techniques for performing FNAs and core biopsies are similar. The needle tip is plunged into the tumor and retracted, in a fast and repetitive motion, while applying suction at the needle tip. […]
To investigate if this mechanism is consistent in vivo, we used the Nano ImmunoAssay to analyze core biopsies and fine needle aspirates (FNA) of tumors during the course of treatment with NSC750212. […] There are no other charged isoforms of tubulin detected by NIA (FIG. 7, panel D).

The next series relates to monoglycerols. The series can be described thus: DESI-MSI of monoglycerols in treated RCC. The series is classed as in vivo, mouse. The conditions noted are these: primary MYC-driven RCC, upon termination of treatment. The text has this: DESI-MSI functions by directing a pneumatically assisted solvent electrospray onto the surface of interest (Takats, Wiseman, Gologan, & Cooks, 2004). The electrosprayed solvent droplets dissolve certain chemical constituents off the surface investigated and also induce the formation of secondary charged-droplets that take off from the surface. These secondary droplets already contain constituents of the sample and produce molecular ions of the analytes upon evaporation in the atmospheric pressure interface of the mass spectrometer. This way, electrospray-like mass spectrometric information is obtained on the sample, featuring multiply charged ions and solvent adducts among other electrospray-specific spectral features.
Though we expected a complete depletion of metabolism upon tubulin inhibition by NSC750212, our DESI-MSI analyses uncover a more interesting mechanism. […] Monoglycerol metabolism has been implicated in cancer, due to the high need of cancer cells of energy and building blocks. […] As described herein, DESI-MSI is a valuable tool for use in uncovering the mechanism of action of exemplary azapodophyllotoxin derivatives.

In the case of `O=C1OCC2=C1C(c1cccc(Br)c1)c1cc3c(cc1N2CCO)CCC3` (centres unmarked) [AR-038], in the series on human RCC A498 cell line, the “reduction in viability / suppression” value came to 90% and the “SAR analysis: relative activity” value was “promising activity”.
In the case of `COc1cccc(C2C3=C(COC3=O)N(CCO)c3cc4c(cc32)OCCO4)c1` (centres unmarked) [NSC750722], the “sensitivity of MYC-driven RCC line to compound” value (“sensitivity” for short) in the series with murine RCC E28 cells (280 nM) is on record as “very high sensitivity”.
Regarding `COc1cccc(C2C3=C(COC3=O)N(CCO)c3cc4c(cc32)CCC4)c1` (centres unmarked) [NSC750719], the “sensitivity” value in the series on murine RCC E28 cells (280 nM) is listed as “very high sensitivity”.
Turning to `COc1cc(C2C3=C(COC3=O)N(CCO)c3cc4c(cc32)CCC4)cc(OC)c1OC` (centres unmarked) [NSC750212], in the series on murine RCC E28 cells (70 nM, 48 hours), the “reduction of cell proliferation compared to the vehicle control (DMSO)” value is “about 90%”. Moreover, in the series with murine RCC E28 cells (140 nM, 48 hours), the “suppression of proliferation when compared to 70 nM” value is on record as “two-fold”. In addition, the “sensitivity” value in the series on murine RCC E28 cells (280 nM) was “very high sensitivity”. The “efficacy at higher concentration than 140 nM” value with murine RCC E28 cells (280 nM, 48 hours) is on record as “no further efficacy”. The “reduction in viability / suppression” value in the series with human RCC A498 cell line is on record as 95%. In addition, the “SAR analysis: relative activity” value with human RCC A498 cell line is given as “most active”. Also, the reduction in proliferation in the series with CCRF (T lymphoblast) (70 nM, vs control (DMSO)) is listed as approximately 90%; in [1] (70 nM), approximately 95%; in series [2] (140 nM), “over 90%”; with murine lymphoma 6780 (70 nM), approximately 90%. Also, the suppression of proliferation result in the series with CCRF (T lymphoblast) (140 nM) is listed as “roughly 92%”; in the series on CCRF (T lymphoblast) (280 nM), “about 96%”; in the series on KOPT-K1 (human T-ALL) (70 nM) it was “roughly 85%”; in the series with KOPT-K1 (human T-ALL) (140 nM) it was “roughly 87%”; in series [2] (70 nM), “roughly 85%”; in [2] (280 nM) it was approximately 98%. Besides, the suppression of proliferation with murine lymphoma 6780 (140 nM) is approximately 94%; in the series with murine lymphoma 6780 (280 nM) it was “maximal suppression”. The dose response entry in the series on CCRF (T lymphoblast) (70, 140, 280 nM) was “dose-dependent response”; with KOPT-K1 (human T-ALL) (70, 140, 280 nM) it was “dose-dependent response”; in series [2] (70, 140, 280 nM) it was “dose-dependent response”; in the series on murine lymphoma 6780 (70, 140, 280 nM) it was “dose-dependent response”. Also, in series [1], the “maximal dose (maximally effective dose)” value is 70 nM. In addition, the “change in suppression vs 70 nM” value in series [1] (140 nM) is “no dose response”. The reduction of proliferation result with KOPT-K1 (human T-ALL) (280 nM) is “roughly 89%”. Also, the tumor burden entry in series [3] and in [4] was “significant reduction in tumor burden” in each case. The “inhibition of tubulin polymerization (turbidity at 350 nm over 90 minutes)” value in the series with bovine tubulin is recorded as “more efficacious than Nocodazole”. For the same molecule, the “lowered levels of tubulin expression vs control” value with tubulin (core biopsy of tumor during treatment) and in the series with tubulin (fine needle aspirate (FNA) of tumor during treatment) was “at least two-fold” throughout. Besides, in the series with monoglycerols, the “levels of monoglycerols compared to untreated RCC” value is on record as “elevated levels of monoglycerols”.

The values above are taken from patent US20230003715A1, “AZAPODOPHYLLOTOXIN DERIVATIVES AND METHODS OF TREATING LYMPHOMA AND KIDNEY CANCER” (The Board of Trustees of the Leland Stanford Junior …, priority 2019, published 2023).
